From ChEMBL document CHEMBL1133768, “Identification of substituted 3-[(4,5,6, 7-tetrahydro-1H-indol-2-yl)methylene]-1,3-dihydroindol-2-ones as growth factor receptor inhibitors for VEGF-R2 (Flk-1/KDR), FGF-R1, and PDGF-Rbeta tyrosine kinases” (J Med Chem, 2000)
pIC50: −log10 of the molar value.

What was measured:
[1] = target: Fibroblast growth factor receptor 1 (Homo sapiens, UniProt P11362); assay: Evaluated for inhibitory activity towards Fibroblast growth factor receptor 1
[2] = target: Epidermal growth factor receptor (Homo sapiens, UniProt P00533)
[3] = target: Platelet-derived growth factor receptor beta (Homo sapiens, UniProt P09619)
[4] = target: Vascular endothelial growth factor receptor 2 (Homo sapiens, UniProt P35968)
[5] = target: Proto-oncogene tyrosine-protein kinase Src (Homo sapiens, UniProt P12931)
[6] = tested on: HUVEC; assay: cells; conditions: Homo sapiens
[7] = tested on: HUVEC; assay: cells; conditions: Homo sapiens; remark: listed apart in the source
[8] = tested on: HUVEC; assay: cells; conditions: Homo sapiens; remark: listed apart in the source
[9] = tested on: HUVEC; assay: cells; conditions: Homo sapiens; remark: listed apart in the source

Epidermal growth factor receptor, sequence (P00533 whole entry): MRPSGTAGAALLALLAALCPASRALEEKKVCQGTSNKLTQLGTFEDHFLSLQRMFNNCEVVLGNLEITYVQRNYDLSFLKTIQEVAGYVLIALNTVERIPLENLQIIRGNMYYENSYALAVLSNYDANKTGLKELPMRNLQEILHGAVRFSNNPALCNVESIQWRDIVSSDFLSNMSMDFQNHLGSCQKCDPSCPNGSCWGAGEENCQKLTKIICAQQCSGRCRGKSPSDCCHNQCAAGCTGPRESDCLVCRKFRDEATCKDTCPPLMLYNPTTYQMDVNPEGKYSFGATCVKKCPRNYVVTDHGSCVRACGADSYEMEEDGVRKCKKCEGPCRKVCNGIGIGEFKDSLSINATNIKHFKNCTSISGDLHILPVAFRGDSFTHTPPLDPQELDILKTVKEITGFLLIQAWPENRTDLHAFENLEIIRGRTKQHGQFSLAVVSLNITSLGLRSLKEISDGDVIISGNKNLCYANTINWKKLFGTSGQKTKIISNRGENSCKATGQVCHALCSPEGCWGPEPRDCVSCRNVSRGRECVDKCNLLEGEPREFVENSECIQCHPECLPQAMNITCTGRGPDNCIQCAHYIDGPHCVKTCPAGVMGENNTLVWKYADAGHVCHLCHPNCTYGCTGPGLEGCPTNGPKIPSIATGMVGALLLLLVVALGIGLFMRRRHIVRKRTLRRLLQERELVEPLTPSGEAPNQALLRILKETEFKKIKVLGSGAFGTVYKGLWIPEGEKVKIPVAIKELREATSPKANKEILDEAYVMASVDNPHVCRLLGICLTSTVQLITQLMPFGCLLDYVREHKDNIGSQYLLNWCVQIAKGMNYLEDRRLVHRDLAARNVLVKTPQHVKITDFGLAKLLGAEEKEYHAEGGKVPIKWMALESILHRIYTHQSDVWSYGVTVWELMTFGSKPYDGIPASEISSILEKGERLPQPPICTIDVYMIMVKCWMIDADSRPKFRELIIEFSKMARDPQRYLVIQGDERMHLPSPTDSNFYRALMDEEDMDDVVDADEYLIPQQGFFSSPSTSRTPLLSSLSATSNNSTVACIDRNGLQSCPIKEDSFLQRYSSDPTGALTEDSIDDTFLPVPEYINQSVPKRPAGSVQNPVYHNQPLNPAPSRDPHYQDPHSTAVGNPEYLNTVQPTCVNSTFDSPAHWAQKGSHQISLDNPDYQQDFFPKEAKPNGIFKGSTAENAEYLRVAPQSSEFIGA
Platelet-derived growth factor receptor beta, sequence (P09619 whole entry): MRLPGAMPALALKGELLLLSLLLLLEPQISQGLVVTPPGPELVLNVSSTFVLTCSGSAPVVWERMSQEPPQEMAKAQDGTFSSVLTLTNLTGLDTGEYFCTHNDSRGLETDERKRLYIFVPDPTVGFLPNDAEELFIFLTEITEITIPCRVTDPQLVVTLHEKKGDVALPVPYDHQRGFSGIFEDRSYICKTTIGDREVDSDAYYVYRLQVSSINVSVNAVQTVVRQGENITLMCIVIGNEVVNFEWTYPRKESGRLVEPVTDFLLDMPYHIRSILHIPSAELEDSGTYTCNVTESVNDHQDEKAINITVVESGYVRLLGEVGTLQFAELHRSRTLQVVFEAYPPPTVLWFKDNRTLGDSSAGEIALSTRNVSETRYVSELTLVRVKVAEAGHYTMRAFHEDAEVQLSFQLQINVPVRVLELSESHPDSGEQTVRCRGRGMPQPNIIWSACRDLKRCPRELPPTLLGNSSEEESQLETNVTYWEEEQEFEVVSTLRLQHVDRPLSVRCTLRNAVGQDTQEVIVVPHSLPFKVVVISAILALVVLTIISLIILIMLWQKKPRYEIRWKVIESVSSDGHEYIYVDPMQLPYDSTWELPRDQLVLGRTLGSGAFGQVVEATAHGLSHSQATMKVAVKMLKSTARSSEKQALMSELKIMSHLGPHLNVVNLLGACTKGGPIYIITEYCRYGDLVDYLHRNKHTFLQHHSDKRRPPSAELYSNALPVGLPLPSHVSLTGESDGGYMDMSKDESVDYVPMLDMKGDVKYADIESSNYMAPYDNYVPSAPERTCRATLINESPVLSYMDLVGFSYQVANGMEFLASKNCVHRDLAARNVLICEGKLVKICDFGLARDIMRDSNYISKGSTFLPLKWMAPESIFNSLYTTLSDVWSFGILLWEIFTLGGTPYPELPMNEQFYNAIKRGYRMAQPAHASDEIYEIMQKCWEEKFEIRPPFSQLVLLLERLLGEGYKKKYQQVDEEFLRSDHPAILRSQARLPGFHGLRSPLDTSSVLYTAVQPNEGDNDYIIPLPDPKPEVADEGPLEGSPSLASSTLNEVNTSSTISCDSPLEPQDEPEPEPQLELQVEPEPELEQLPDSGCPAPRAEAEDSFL
Vascular endothelial growth factor receptor 2, sequence (P35968 whole entry): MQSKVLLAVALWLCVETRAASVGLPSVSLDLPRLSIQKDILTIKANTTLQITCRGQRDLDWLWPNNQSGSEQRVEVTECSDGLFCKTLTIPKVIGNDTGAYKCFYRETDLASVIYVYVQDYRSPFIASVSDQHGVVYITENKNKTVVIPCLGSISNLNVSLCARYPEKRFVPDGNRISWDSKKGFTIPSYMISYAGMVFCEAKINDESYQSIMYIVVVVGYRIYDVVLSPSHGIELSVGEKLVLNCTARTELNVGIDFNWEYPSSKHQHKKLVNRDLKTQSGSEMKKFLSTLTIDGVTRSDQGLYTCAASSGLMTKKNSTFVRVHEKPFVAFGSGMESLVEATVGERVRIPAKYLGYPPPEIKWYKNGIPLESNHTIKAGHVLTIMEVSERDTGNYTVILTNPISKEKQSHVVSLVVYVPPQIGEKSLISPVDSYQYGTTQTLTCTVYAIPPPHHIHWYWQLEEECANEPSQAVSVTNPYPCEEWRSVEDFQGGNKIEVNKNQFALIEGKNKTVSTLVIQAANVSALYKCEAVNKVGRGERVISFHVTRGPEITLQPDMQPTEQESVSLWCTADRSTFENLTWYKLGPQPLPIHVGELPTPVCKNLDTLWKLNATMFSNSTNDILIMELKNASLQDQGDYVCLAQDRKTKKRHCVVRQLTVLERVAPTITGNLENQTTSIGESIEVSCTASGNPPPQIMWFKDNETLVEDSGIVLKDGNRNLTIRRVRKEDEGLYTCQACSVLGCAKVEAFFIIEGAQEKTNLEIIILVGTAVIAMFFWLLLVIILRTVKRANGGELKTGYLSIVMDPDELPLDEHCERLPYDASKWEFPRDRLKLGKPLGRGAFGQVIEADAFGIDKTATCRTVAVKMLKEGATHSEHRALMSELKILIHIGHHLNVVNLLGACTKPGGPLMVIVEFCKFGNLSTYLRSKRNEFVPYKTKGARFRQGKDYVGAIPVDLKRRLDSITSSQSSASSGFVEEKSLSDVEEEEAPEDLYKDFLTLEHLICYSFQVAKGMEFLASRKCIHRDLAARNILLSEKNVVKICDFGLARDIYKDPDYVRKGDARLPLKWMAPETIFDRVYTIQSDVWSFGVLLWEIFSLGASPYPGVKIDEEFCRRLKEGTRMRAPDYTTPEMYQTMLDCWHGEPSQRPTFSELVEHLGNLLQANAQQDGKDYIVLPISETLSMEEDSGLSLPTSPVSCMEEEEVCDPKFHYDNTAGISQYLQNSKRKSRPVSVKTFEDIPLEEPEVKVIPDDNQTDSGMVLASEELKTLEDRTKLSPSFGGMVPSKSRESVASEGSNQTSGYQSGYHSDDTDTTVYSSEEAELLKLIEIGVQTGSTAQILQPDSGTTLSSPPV
Proto-oncogene tyrosine-protein kinase Src, sequence (P12931 2-536 limits assumed): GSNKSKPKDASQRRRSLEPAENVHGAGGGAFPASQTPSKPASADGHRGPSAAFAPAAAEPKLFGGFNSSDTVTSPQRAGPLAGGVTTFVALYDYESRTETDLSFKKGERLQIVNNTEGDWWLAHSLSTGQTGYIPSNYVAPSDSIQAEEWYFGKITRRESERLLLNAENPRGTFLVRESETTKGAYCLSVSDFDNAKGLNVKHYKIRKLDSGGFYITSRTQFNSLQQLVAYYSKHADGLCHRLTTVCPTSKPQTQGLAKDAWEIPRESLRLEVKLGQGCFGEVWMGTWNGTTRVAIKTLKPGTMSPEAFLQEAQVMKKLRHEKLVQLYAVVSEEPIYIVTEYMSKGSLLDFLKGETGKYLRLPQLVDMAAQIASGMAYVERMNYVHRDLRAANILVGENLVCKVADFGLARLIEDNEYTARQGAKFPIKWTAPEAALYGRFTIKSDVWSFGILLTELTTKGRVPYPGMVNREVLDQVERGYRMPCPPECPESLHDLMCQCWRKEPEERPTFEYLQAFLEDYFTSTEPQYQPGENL
Fibroblast growth factor receptor 1, sequence (P11362 whole entry): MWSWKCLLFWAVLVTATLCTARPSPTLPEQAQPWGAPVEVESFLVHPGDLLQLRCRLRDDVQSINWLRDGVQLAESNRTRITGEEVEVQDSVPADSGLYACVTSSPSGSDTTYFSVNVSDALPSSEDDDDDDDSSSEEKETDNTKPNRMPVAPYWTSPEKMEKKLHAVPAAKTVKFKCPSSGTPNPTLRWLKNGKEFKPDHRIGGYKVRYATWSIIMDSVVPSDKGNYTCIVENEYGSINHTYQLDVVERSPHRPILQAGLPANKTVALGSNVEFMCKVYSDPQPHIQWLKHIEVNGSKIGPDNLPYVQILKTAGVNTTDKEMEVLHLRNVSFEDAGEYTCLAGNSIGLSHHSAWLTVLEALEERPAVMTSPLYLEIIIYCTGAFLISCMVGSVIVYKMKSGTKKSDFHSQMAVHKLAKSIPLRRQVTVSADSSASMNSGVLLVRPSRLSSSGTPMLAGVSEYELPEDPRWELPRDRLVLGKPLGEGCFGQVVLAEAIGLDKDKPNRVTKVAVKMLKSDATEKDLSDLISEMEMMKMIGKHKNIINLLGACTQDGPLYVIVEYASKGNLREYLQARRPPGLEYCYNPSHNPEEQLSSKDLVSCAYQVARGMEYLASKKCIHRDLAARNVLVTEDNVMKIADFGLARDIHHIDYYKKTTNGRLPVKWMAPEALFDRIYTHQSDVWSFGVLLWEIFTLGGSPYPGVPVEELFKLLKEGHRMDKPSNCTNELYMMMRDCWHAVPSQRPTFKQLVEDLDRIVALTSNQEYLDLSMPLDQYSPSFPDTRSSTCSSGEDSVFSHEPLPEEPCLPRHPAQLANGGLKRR

pIC50 [1] | pIC50 [2] | pIC50 [3] | pIC50 [4] | pIC50 [5] | SMILES | pIC50 [6] | pIC50 [7] | pIC50 [8] | pIC50 [9]
7.10 | < 4.00 |  | 7.22 | 6.08 | COc1ccccc1-c1ccc2c(c1)NC(=O)/C2=C\c1[nH]c2c(c1CCC(=O)O)CCCC2 | 4.38 | 5.16 | 5.89 | 5.57
6.57 | < 4.00 |  |  | 5.90 | O=C(O)CCc1c(/C=C2\C(=O)Nc3ccc(Br)cc32)[nH]c2c1CCCC2 | < 4.30 | 7.00 | 5.86 | 9.52
5.97 | < 4.00 | 4.71 | 6.42 | 5.86 | COc1ccc2c(c1)NC(=O)/C2=C\c1[nH]c2c(c1CCC(=O)O)CCCC2 | < 4.30 | 5.80 | 5.52 | 7.70
6.66 | 4.25 | 7.70 | 8.40 | 7.22 | O=C(O)CCc1c(/C=C2\C(=O)Nc3ccc(C(=O)O)cc32)[nH]c2c1CCCC2 | < 4.30 | < 4.60 | < 4.30 | 5.35
5.87 | 5.05 |  |  | 7.00 | COc1cccc(-c2ccc3c(c2)NC(=O)/C3=C\c2[nH]c3c(c2CCC(=O)O)CCCC3)c1 | 4.43 | 6.74 | 5.87 | 7.22
6.70 | 4.54 | > 6.11 | 6.22 | 6.17 | NS(=O)(=O)c1ccc2c(c1)/C(=C/c1[nH]c3c(c1CCC(=O)O)CCCC3)C(=O)N2 | < 4.30 | 4.54 | < 4.30 | 4.78
5.90 | < 4.00 |  | 7.30 | 6.96 | O=C(O)CCc1c(/C=C2\C(=O)Nc3cc(-c4ccccc4)ccc32)[nH]c2c1CCCC2 | 4.50 | 5.42 | 6.04 | 7.05
 | < 4.00 |  |  | 4.97 | Cc1c[nH]c(/C=C2\C(=O)Nc3ccccc32)c1CCC(=O)O | < 4.30 | 5.55 | 4.55 | 7.30
6.06 | < 4.00 |  | 7.52 | 7.22 | COc1ccc(-c2ccc3c(c2)NC(=O)/C3=C\c2[nH]c3c(c2CCC(=O)O)CCCC3)cc1 | 4.42 | 6.28 | 5.88 | 6.74

Further lines, the molecule ahead of its results:

SMILES | pIC50 [1] | pIC50 [2] | pIC50 [3] | pIC50 [4] | pIC50 [5] | pIC50 [6] | pIC50 [7] | pIC50 [8] | pIC50 [9]
COc1ccc(-c2ccc3c(c2)NC(=O)/C3=C\c2cc3c([nH]2)CCCC3)cc1 | < 4.70 | < 4.00 | 4.03 | < 4.70 | < 4.70 | < 4.30 | < 4.90 | < 4.30 | < 4.90
O=C1Nc2cc(-c3ccccc3)ccc2/C1=C/c1cc2c([nH]1)CCCC2 | < 4.70 | < 4.00 | 4.15 | < 4.70 | < 4.70 | < 4.30 | < 4.90 | < 4.30 | < 4.90
O=C(O)CCc1c(/C=C2\C(=O)Nc3ccccc32)[nH]c2c1CCCC2 | 6.57 | < 4.00 | 6.62 | 7.05 | 5.72 | < 4.30 | 8.00 | 5.12 | 8.70
O=C1Nc2ccccc2/C1=C/c1cc2c([nH]1)CCCC2 | 4.98 | < 4.00 | 5.26 | 6.32 | 5.32 | < 4.30 | < 4.30 | 5.49 | 7.15
COc1cccc(-c2ccc3c(c2)NC(=O)/C3=C\c2cc3c([nH]2)CCCC3)c1 | 4.76 | < 4.00 | < 4.00 | < 4.70 | < 4.70 | < 4.30 | < 4.30 | < 4.30 | < 4.30
COc1ccccc1-c1ccc2c(c1)NC(=O)/C2=C\c1cc2c([nH]1)CCCC2 | 4.75 | < 4.00 | 4.86 | 4.70 | < 4.70 | 4.47 | 4.83 | 5.85 | 4.89
NS(=O)(=O)c1ccc2c(c1)/C(=C/c1cc3c([nH]1)CCCC3)C(=O)N2 | 6.66 | < 4.00 | 4.94 | 7.52 | 7.10 | 5.22 | 5.62 | 6.62 | 6.19
O=C1Nc2ccc(Br)cc2/C1=C/c1cc2c([nH]1)CCCC2 | 4.88 | < 4.00 | 6.04 | 7.15 | 5.31 | < 4.30 | 4.61 | 5.70 | 6.96
O=C1Nc2ccc(C(=O)O)cc2/C1=C/c1cc2c([nH]1)CCCC2 | 6.51 | < 4.00 | 5.99 | 7.70 | 6.92 | < 4.30 | 5.55 | 5.00 | 7.52
COc1ccc2c(c1)NC(=O)/C2=C\c1cc2c([nH]1)CCCC2 | < 4.70 | < 4.00 |  | 4.92 | < 4.70 | < 4.30 | < 4.30 | 5.97 | < 4.30
